Data published in patent US8143290B2, “Chemical compounds 572” (AstraZeneca AB, priority 2006, dated 2012).

Biological target: T1, recombinant human GR (Homo sapiens, UniProt P04150)
T1 construct: purchased Panvera/Invitrogen P2812 (kit P2893)
T1 sequence (P04150 1-777): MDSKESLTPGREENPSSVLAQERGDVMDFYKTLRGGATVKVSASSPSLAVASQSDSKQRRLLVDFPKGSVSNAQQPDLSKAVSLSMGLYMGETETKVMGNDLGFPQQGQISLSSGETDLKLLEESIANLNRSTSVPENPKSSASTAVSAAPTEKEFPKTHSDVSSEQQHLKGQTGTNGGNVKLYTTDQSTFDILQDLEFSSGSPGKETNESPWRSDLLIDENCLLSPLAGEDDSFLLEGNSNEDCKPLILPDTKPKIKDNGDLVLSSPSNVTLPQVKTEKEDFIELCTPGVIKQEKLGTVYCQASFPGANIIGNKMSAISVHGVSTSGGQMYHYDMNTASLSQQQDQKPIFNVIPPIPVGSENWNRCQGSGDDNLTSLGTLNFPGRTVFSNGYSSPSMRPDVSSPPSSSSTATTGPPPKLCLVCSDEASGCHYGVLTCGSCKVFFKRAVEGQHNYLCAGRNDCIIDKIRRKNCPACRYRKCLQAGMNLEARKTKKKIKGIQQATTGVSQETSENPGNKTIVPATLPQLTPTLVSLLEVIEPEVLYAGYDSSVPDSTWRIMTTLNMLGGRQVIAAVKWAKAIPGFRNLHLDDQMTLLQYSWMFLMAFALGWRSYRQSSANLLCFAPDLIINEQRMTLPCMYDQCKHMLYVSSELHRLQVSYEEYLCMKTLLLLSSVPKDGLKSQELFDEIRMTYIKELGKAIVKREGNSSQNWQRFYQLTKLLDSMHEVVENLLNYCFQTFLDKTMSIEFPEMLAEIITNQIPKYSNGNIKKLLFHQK
Test: Human Glucocorticoid Receptor (GR) Assay, fluorescence polarization
Type: binding
Conditions: GS Red tracer, incubated 2 h at r.t., XLfit model 205, read-out: GRhuFL_FP_v2 Mean IC50
Procedure, shortened: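 After 2 h dark incubation at r.t., polarization reported displacement of the GS Red tracer from recombinant GR, in buffer with phosphate, molybdate, EDTA, DTT and Stabilizing Peptide. Controls: dexamethasone (100%) and DMSO (0%).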

Row | Compound | IC50
1 | COc1ccc(F)cc1[C@@H](Oc1ccc2c(cnn2-c2ccc(F)cc2)c1)[C@H](C)NC(=O)C(C)(F)F [Example 235, 2,2-difluoro-N-[(1R,2S)-1-(5-fluoro-2-methoxy-phenyl)-1-[1-(4-fluorophenyl)indazol-5-yl]oxy-propan-2-yl]propanamide] | 5.4 nM
2 | COc1c(C)cc([C@@H](Oc2ccc3c(cnn3-c3ccc(F)cc3)c2)[C@H](C)NC(=O)C(C)(F)F)cc1C [Example 236, 2,2-difluoro-N-[(1R,2S)-1-[1-(4-fluorophenyl)indazol-5-yl]oxy-1-(4-methoxy-3,5-dimethyl-phenyl)propan-2-yl]propanamide] | 7.2 nM
3 | C[C@H](NC(=O)C(C)(F)F)[C@H](Oc1ccc2c(cnn2-c2ccc(F)cc2)c1)c1ccc(Cl)cc1 [Example 237, N-[(1R,2S)-1-(4-chlorophenyl)-1-[1-(4-fluorophenyl)indazol-5-yl]oxy-propan-2-yl]-2,2-difluoro-propanamide] | 8.4 nM
4 | C[C@H](NC(=O)C(C)(F)F)[C@H](Oc1ccc2c(cnn2-c2ccc(F)cc2)c1)c1cc(F)cc(Cl)c1 [Example 238, N-[(1R,2S)-1-(3-chloro-5-fluoro-phenyl)-1-[1-(4-fluorophenyl)indazol-5-yl]oxy-propan-2-yl]-2,2-difluoro-propanamide] | 6.8 nM
5 | Cc1cccc([C@@H](Oc2ccc3c(cnn3-c3ccc(F)cc3)c2)[C@H](C)NC(=O)C(C)(F)F)c1 [Example 239, 2,2-difluoro-N-[(1R,2S)-1-[1-(4-fluorophenyl)indazol-5-yl]oxy-1-(3-methylphenyl)propan-2-yl]propanamide] | 9 nM
6 | Cc1ccc([C@@H](Oc2ccc3c(cnn3-c3ccc(F)cc3)c2)[C@H](C)NC(=O)C(C)(C)F)cc1C [Example 240, N-[(1R,2S)-1-(3,4-dimethylphenyl)-1-[1-(4-fluorophenyl)indazol-5-yl]oxy-propan-2-yl]-2-fluoro-2-methyl-propanamide] | 5.9 nM
7 | C[C@H](NC(=O)C(C)(C)F)[C@H](Oc1ccc2c(cnn2-c2ccc(F)cc2)c1)c1ccc(F)c(F)c1 [Example 241, N-[(1R,2S)-1-(3,4-difluorophenyl)-1-[1-(4-fluorophenyl)indazol-5-yl]oxy-propan-2-yl]-2-fluoro-2-methyl-propanamide] | 4.9 nM
8 | Cc1ccc([C@@H](Oc2ccc3c(cnn3-c3ccc(F)cc3)c2)[C@H](C)NC(=O)C(C)(C)F)cc1F [Example 242, 2-fluoro-N-[(1R,2S)-1-(3-fluoro-4-methyl-phenyl)-1-[1-(4-fluorophenyl)indazol-5-yl]oxy-propan-2-yl]-2-methyl-propanamide] | 5.5 nM
9 | C[C@H](NC(=O)C(C)(C)F)[C@H](Oc1ccc2c(cnn2-c2ccc(F)cc2)c1)c1cccc(F)c1 [Example 243, 2-fluoro-N-[(1R,2S)-1-(3-fluorophenyl)-1-[1-(4-fluorophenyl)indazol-5-yl]oxy-propan-2-yl]-2-methyl-propanamide] | 5.5 nM
10 | Cc1ccc(C)c([C@@H](Oc2ccc3c(cnn3-c3ccc(F)cc3)c2)[C@H](C)NC(=O)C(C)(C)F)c1 [Example 244, N-[(1R,2S)-1-(2,5-dimethylphenyl)-1-[1-(4-fluorophenyl)indazol-5-yl]oxy-propan-2-yl]-2-fluoro-2-methyl-propanamide] | 8.3 nM
11 | Cc1ccc([C@@H](Oc2ccc3c(cnn3-c3ccc(F)cc3)c2)[C@H](C)NC(=O)C(C)(C)F)c(C)c1 [Example 245, N-[(1R,2S)-1-(2,4-dimethylphenyl)-1-[1-(4-fluorophenyl)indazol-5-yl]oxy-propan-2-yl]-2-fluoro-2-methyl-propanamide] | 5.5 nM
12 | COc1ccc([C@@H](Oc2ccc3c(cnn3-c3ccc(F)cc3)c2)[C@H](C)NC(=O)C(C)(C)F)cc1F [Example 246, 2-fluoro-N-[(1R,2S)-1-(3-fluoro-4-methoxy-phenyl)-1-[1-(4-fluorophenyl)indazol-5-yl]oxy-propan-2-yl]-2-methyl-propanamide] | 6 nM
13 | C[C@H](NC(=O)C(C)(C)F)[C@H](Oc1ccc2c(cnn2-c2ccc(F)cc2)c1)c1cccc(Cl)c1 [Example 247, N-[(1R,2S)-1-(3-chlorophenyl)-1-[1-(4-fluorophenyl)indazol-5-yl]oxy-propan-2-yl]-2-fluoro-2-methyl-propanamide] | 4.4 nM
14 | Cc1cc(F)ccc1[C@@H](Oc1ccc2c(cnn2-c2ccc(F)cc2)c1)[C@H](C)NC(=O)C(C)(C)F [Example 248, 2-fluoro-N-[(1R,2S)-1-(4-fluoro-2-methyl-phenyl)-1-[1-(4-fluorophenyl)indazol-5-yl]oxy-propan-2-yl]-2-methyl-propanamide] | 4.8 nM
15 | Cc1ccc(F)cc1[C@@H](Oc1ccc2c(cnn2-c2ccc(F)cc2)c1)[C@H](C)NC(=O)C(C)(C)F [Example 249, 2-fluoro-N-[(1R,2S)-1-(5-fluoro-2-methyl-phenyl)-1-[1-(4-fluorophenyl)indazol-5-yl]oxy-propan-2-yl]-2-methyl-propanamide] | 5 nM
16 | COc1ccc(F)cc1[C@@H](Oc1ccc2c(cnn2-c2ccc(F)cc2)c1)[C@H](C)NC(=O)C(C)(C)F [Example 250, 2-fluoro-N-[(1R,2S)-1-(5-fluoro-2-methoxy-phenyl)-1-[1-(4-fluorophenyl)indazol-5-yl]oxy-propan-2-yl]-2-methyl-propanamide] | 6.9 nM
17 | C[C@H](NC(=O)C(C)(C)CO)[C@H](Oc1ccc2c(cnn2-c2ccc(F)cc2)c1)c1ccc(F)c(F)c1 [Example 251, N-[(1R,2S)-1-(3,4-difluorophenyl)-1-[1-(4-fluorophenyl)indazol-5-yl]oxy-propan-2-yl]-3-hydroxy-2,2-dimethyl-propanamide] | 5.3 nM
18 | Cc1ccc([C@@H](Oc2ccc3c(cnn3-c3ccc(F)cc3)c2)[C@H](C)NC(=O)C(C)(C)CO)cc1F [Example 252, N-[(1R,2S)-1-(3-fluoro-4-methyl-phenyl)-1-[1-(4-fluorophenyl)indazol-5-yl]oxy-propan-2-yl]-3-hydroxy-2,2-dimethyl-propanamide] | 4.7 nM
19 | C[C@H](NC(=O)C(C)(C)CO)[C@H](Oc1ccc2c(cnn2-c2ccc(F)cc2)c1)c1cccc(F)c1 [Example 253, N-[(1R,2S)-1-(3-fluorophenyl)-1-[1-(4-fluorophenyl)indazol-5-yl]oxy-propan-2-yl]-3-hydroxy-2,2-dimethyl-propanamide] | 7.5 nM
20 | Cc1ccc(C)c([C@@H](Oc2ccc3c(cnn3-c3ccc(F)cc3)c2)[C@H](C)NC(=O)C(C)(C)CO)c1 [Example 254, N-[(1R,2S)-1-(2,5-dimethylphenyl)-1-[1-(4-fluorophenyl)indazol-5-yl]oxy-propan-2-yl]-3-hydroxy-2,2-dimethyl-propanamide] | 8.5 nM
21 | C[C@H](NC(=O)C(C)(C)CO)[C@H](Oc1ccc2c(cnn2-c2ccc(F)cc2)c1)c1cccc(Cl)c1 [Example 255, N-[(1R,2S)-1-(3-chlorophenyl)-1-[1-(4-fluorophenyl)indazol-5-yl]oxy-propan-2-yl]-3-hydroxy-2,2-dimethyl-propanamide] | 5.1 nM
22 | Cc1cc(F)ccc1[C@@H](Oc1ccc2c(cnn2-c2ccc(F)cc2)c1)[C@H](C)NC(=O)C(C)(C)CO [Example 256, N-[(1R,2S)-1-(4-fluoro-2-methyl-phenyl)-1-[1-(4-fluorophenyl)indazol-5-yl]oxy-propan-2-yl]-3-hydroxy-2,2-dimethyl-propanamide] | 5.3 nM
23 | COCC(=O)N[C@@H](C)[C@H](Oc1ccc2c(cnn2-c2ccc(F)cc2)c1)c1ccc(C)c(C)c1 [Example 257, N-[(1R,2S)-1-(3,4-dimethylphenyl)-1-[1-(4-fluorophenyl)indazol-5-yl]oxy-propan-2-yl]-2-methoxy-acetamide] | 13 nM
24 | COCC(=O)N[C@@H](C)[C@H](Oc1ccc2c(cnn2-c2ccc(F)cc2)c1)c1ccc(F)c(F)c1 [Example 258, N-[(1R,2S)-1-(3,4-difluorophenyl)-1-[1-(4-fluorophenyl)indazol-5-yl]oxy-propan-2-yl]-2-methoxy-acetamide] | 4.4 nM
25 | COCC(=O)N[C@@H](C)[C@H](Oc1ccc2c(cnn2-c2ccc(F)cc2)c1)c1ccc(C)c(F)c1 [Example 259, N-[(1R,2S)-1-(3-fluoro-4-methyl-phenyl)-1-[1-(4-fluorophenyl)indazol-5-yl]oxy-propan-2-yl]-2-methoxy-acetamide] | 5.3 nM
26 | COCC(=O)N[C@@H](C)[C@H](Oc1ccc2c(cnn2-c2ccc(F)cc2)c1)c1cc(C)ccc1C [Example 260, N-[(1R,2S)-1-(2,5-dimethylphenyl)-1-[1-(4-fluorophenyl)indazol-5-yl]oxy-propan-2-yl]-2-methoxy-acetamide] | 14 nM
27 | COCC(=O)N[C@@H](C)[C@H](Oc1ccc2c(cnn2-c2ccc(F)cc2)c1)c1ccc(C)cc1C [Example 261, N-[(1R,2S)-1-(2,4-dimethylphenyl)-1-[1-(4-fluorophenyl)indazol-5-yl]oxy-propan-2-yl]-2-methoxy-acetamide] | 5.7 nM
